Results published in patent US20080085886A1, “Aza-benzofuranyl compounds and methods of use” (GENENTECH, INC., priority 2006, published 2008).
Structures can show the parent of a compound that is named as a salt.

Legend:
[1] = tested on: HCT 116 human colorectal carcinoma / A375 human malignant melanoma cell lines; assay: Cell proliferation assay (CellTiter-Glo), Example 3; assay type: cell-based; conditions: in either one of the cell lines (HCT 116, A375), 72 h
Protocol: Example 3 Cell Proliferation Assay
Compounds are tested in a cell proliferation assay using the following cell lines:
HCT 116 human colorectal carcinoma (ATCC)
(§1) A375 human malignant melanoma (ATCC)
(§2) Both cell lines are maintained in DMEM/F12 (1:1) media (Gibco) supplemented with 10% FCS at 37° C. in a 5% CO2 humidified incubator.
Cells are seeded in 96-well plates at 2,000 cells/well and after 24 hours they are exposed to different concentrations of compounds in 0.83% DMSO. Cells are grown for a further 72 h, and an equal volume of CellTiter-Glo reagent (Promega) is added to each well. This lyses the cells and generates a luminescent signal proportional to the amount of ATP released (and therefore proportional to the number of cells in the well) that can be detected using a multiwell luminometer.
EC50 values are calculated using the XLfit software package (version 2.0.5).

[2] = tested on: cellular p-ERK in HCT116 human colorectal carcinoma / A375 human malignant melanoma cell lines; assay: Phospho-ERK cell-based assay (ELISA), Example 4; conditions: in either one of the cell lines (HCT116, A375), 2 h or 24 h exposure
Protocol: Example 4 Phospho-ERK Cell-Based Assay
Compounds are tested in a cell-based phospho-ERK ELISA using the following cell lines:
HCT116 human colorectal carcinoma (ATCC)
as §1, §2
Cells are seeded in 96-well plates at 2,000 cells/well and after 24 h they are exposed to different concentrations of compounds in 0.83% DMSO. Cells are grown for a further 2 h or 24 h, fixed with formaldehyde (2% final) and permeabilised with methanol. Following blocking with TBST-3% BSA, fixed cells are incubated with primary antibody (anti-phospho ERK from rabbit) over-night at 4° C. Cells are incubated with Propidium Iodide (DNA fluorescent dye) and detection of cellular p-ERK is performed using an anti-rabbit secondary antibody conjugated to the fluorescent Alexa Fluor 488 dye (Molecular probes). The fluorescence is analysed using the Acumen Explorer (TTP Labtech), a laser-scanning microplate cytometer, and the Alexa Fluor 488 signal is normalised to the PI signal (proportional to cell number).
The EC50 is defined as the concentration at which a given compound achieves a signal half way between the baseline and the maximum response. EC50 values are calculated using the XLfit software package (version 2.0.5).

`NC(=O)c1oc2ccncc2c1Nc1ccc(I)cc1F` [Example 21, 3-(2-Fluoro-4-iodo-phenylamino)-furo[3,2-c]pyridine-2-carboxylic acid amide] was tested, and the EC50 [1] was < 10 µM and the EC50 [2] was < 10 µM.

In the case of `C=COCCONC(=O)c1oc2ccncc2c1Nc1ccc(I)cc1F` [Example 11, 3-(2-Fluoro-4-iodo-phenylamino)-furo[3,2-c]pyridine-2-carboxylic acid (2-vinyloxy-ethoxy)-amide], the EC50 [1] is reported as < 10 µM and the EC50 [2] is reported as < 10 µM.

With `CS(=O)(=O)NCCONC(=O)c1oc2ccncc2c1Nc1ccc(I)cc1F` [Example 109, 3-(2-Fluoro-4-iodo-phenylamino)-furo[3,2-c]pyridine-2-carboxylic acid (2-methanesulfonylamino-ethoxy)-amide] the EC50 [1] was < 10 µM and the EC50 [2] was < 10 µM.

In the case of `O=C(NOC[C@H](O)CO)c1oc2ccncc2c1Nc1ccc(I)cc1F` [Example 5, 3-(2-Fluoro-4-iodo-phenylamino)-furo[3,2-c]pyridine-2-carboxylic acid ((R)-2,3-dihydroxy-propoxy)-amide], the EC50 [1] is reported as < 10 µM and the EC50 [2] is reported as < 10 µM.

`O=C(NOC[C@H](O)CO)c1oc2ccncc2c1Nc1ccc(I)cc1` [Example 12, 3-(4-Iodo-phenylamino)-furo[3,2-c]pyridine-2-carboxylic acid ((R)-2,3-dihydroxy-propoxy)-amide] was tested, and the EC50 [1] was < 10 µM and the EC50 [2] was < 10 µM.

In the case of `O=C(NOCC1CC1)c1oc2ccncc2c1Nc1ccc(I)cc1F` [Example 8, 3-(2-Fluoro-4-iodo-phenylamino)-furo[3,2-c]pyridine-2-carboxylic acid cyclopropylmethoxy-amide], the EC50 [1] is reported as < 10 µM and the EC50 [2] is reported as < 10 µM.

`CSc1ccc(Nc2c(C(=O)NOCCO)oc3ccncc23)c(F)c1` [Example 35, 3-(2-Fluoro-4-methylsulfanyl-phenylamino)-furo[3,2-c]pyridine-2-carboxylic acid (2-hydroxy-ethoxy)-amide] was tested, and the EC50 [1] was < 10 µM and the EC50 [2] was < 10 µM.

In the case of `O=C(NOC1CCCNC1)c1oc2ccncc2c1Nc1ccc(I)cc1F` (stereo not shown) [Example 140, 3-(2-Fluoro-4-iodo-phenylamino)-furo[3,2-c]pyridine-2-carboxylic acid (piperdin-3-yloxy)-amide], the EC50 [1] is reported as < 10 µM and the EC50 [2] is reported as < 10 µM.

In the case of `O=C(NOC[C@H](O)CO)c1oc2cnccc2c1Nc1ccc(I)cc1F` [Example 9, 3-(2-Fluoro-4-iodo-phenylamino)-furo[2,3-c]pyridine-2-carboxylic acid ((R)-2,3-dihydroxy-propoxy)-amide], the EC50 [1] is reported as < 10 µM and the EC50 [2] is reported as < 10 µM.

For `O=C(NOC[C@H](O)CO)c1oc2ccncc2c1Nc1ccc(Br)cc1F` [Example 6, 3-(2-Fluoro-4-bromo-phenylamino)-furo[3,2-c]pyridine-2-carboxylic acid ((R)-2,3-dihydroxy-propoxy)-amide], the EC50 [1] was < 10 µM and the EC50 [2] was < 10 µM.

In the case of `O=C(NO[C@H]1CCNC1)c1oc2ccncc2c1Nc1ccc(I)cc1F` [Example 38, 3-(2-Fluoro-4-iodo-phenylamino)-furo[3,2-c]pyridine-2-carboxylic acid ((S)-pyrrolidin-3-yloxy)-amide mono formate salt], the EC50 [1] is reported as < 10 µM and the EC50 [2] is reported as < 10 µM.
